Laboratory results as given in US12653860B2, “Compositions and methods for editing beta-globin for treatment of hemaglobinopathies” (Vertex Pharmaceuticals Incorporated, priority 2019, dated 2026).

System: HBB locus in CD34-expressing LT-HSPCs
Assay: Indel formation at HBB locus in vitro by TIDE analysis
Type: cell-based, human
Details: FIG. 11
Description: The cells were electroporated with 1 g mRNA encoding i53.
Editing efficiency at the HBB locus was evaluated by measuring indel formation by TIDE analysis. […] This group had 1.7-fold reduction in INDEL frequency relative to cells treated with RNP+AAV,

Substance: i53: polypeptide inhibitor of 53BP1 (SEQ ID NO: 70), delivered as mRNA (ORF SEQ ID NO: 69)
- level of indel formation: lowest level of indel formation
